Measured values published in ChEMBL document CHEMBL1122801, “Nontricyclic antidepressant agents derived from cis- and trans-1-amino-4-aryltetralins” (J Med Chem, 1984).
Counter-ions that a name gives are not always drawn.

Tests used:
[1] = target: Sodium-dependent dopamine transporter (Rattus norvegicus, UniProt P23977); assay: Inhibition of dopamine uptake in synaptosomal preparation in rat corpus striatum, using [3H]dopamine; assay type: functional, tissue-based
[2] = target: Norepinephrine transporter (Rattus norvegicus, UniProt Q9WTR4); assay: Inhibition of norepinephrine uptake in synaptosomal preparation fro rat hypothalamus, using [3H]norepinephrine; assay type: functional, tissue-based
Norepinephrine transporter, sequence (Q9WTR4 whole entry): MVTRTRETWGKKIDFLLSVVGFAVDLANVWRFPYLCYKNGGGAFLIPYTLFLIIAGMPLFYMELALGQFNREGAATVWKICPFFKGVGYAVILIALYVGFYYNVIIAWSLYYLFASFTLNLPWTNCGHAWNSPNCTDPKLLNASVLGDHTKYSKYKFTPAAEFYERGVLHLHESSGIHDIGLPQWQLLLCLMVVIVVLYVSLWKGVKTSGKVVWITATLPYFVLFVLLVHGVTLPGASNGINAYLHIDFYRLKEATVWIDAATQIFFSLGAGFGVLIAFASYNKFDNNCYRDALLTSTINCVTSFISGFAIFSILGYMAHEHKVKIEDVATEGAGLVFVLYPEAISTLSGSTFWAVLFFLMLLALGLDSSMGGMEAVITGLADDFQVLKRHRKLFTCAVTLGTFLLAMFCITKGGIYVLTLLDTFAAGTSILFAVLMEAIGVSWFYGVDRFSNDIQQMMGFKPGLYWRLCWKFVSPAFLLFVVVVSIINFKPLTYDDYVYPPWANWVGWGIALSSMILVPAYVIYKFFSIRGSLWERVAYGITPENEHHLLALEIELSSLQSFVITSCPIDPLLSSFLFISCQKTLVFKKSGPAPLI

Sodium-dependent dopamine transporter, sequence (P23977 whole entry): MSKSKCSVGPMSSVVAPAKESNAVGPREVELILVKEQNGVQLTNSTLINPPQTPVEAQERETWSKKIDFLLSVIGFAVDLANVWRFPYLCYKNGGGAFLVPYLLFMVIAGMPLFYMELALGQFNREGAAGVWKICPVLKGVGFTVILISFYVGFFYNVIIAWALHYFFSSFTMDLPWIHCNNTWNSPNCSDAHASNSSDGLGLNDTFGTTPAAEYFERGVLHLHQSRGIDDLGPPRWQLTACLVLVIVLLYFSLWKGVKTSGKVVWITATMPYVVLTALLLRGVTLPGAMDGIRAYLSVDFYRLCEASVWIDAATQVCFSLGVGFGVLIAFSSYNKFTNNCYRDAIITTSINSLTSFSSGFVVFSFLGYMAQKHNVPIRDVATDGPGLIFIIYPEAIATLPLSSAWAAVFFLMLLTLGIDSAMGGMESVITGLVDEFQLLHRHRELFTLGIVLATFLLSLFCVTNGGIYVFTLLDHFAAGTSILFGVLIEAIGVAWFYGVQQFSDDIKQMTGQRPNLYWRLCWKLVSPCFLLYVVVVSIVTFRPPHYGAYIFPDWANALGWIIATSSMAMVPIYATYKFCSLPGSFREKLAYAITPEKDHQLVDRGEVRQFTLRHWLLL

SMILES	IC50 [1]	IC50 [2]
CN[C@@H]1CC[C@@H](c2cccc(OC)c2)c2ccccc21	530 nM	60 nM
CN[C@@H]1CC[C@@H](c2cccc(C(F)(F)F)c2)c2ccccc21	2600 nM	260 nM
CN[C@@H]1CC[C@@H](c2ccccc2)c2ccccc21 [TAMETRALINE HYDROCHLORIDE]	210 nM	40 nM
CN[C@@H]1CC[C@@H](c2ccc(Oc3ccccc3)cc2)c2ccccc21	8400 nM	2300 nM
N[C@H]1CC[C@@H](c2ccc(Cl)c(Cl)c2)c2ccccc21	1250 nM	250 nM
CN[C@H]1CC[C@@H](c2ccc(Br)cc2)c2ccccc21	1600 nM	1400 nM
CN[C@H]1CC[C@@H](c2ccc(F)cc2)c2ccccc21	4700 nM	2300 nM
CN[C@H]1CC[C@@H](c2ccccc2)c2ccccc21	5100 nM	1860 nM
CN[C@H]1CC[C@@H](c2ccc(Cl)c(C(F)(F)F)c2)c2ccccc21 (stereo in doubt; 61)	490 nM	–
CN[C@H]1CC[C@@H](c2ccc(C(F)(F)F)cc2)c2ccccc21	7800 nM	9800 nM
CN[C@@H]1CC[C@@H](c2ccc(Cl)c(C(F)(F)F)c2)c2ccccc21	7300 nM	–
CN[C@H]1CC[C@@H](c2ccc(Cl)c(C(F)(F)F)c2)c2ccccc21 (stereo in doubt; 60)	6200 nM	–
CN[C@@H]1CC[C@@H](c2ccc(OC)cc2)c2ccccc21	400 nM	150 nM
CN[C@@H]1CC[C@@H](c2ccc(F)cc2)c2ccccc21	220 nM	30 nM
CN(C)[C@H]1CC[C@@H](c2cccc(C(F)(F)F)c2)c2ccccc21	7000 nM	890 nM
CN[C@H]1CC[C@@H](c2ccc(F)c(OC)c2)c2ccccc21	850 nM	3300 nM
CN[C@H]1CC[C@@H](c2ccccc2)c2ccccc21 (stereo in doubt; 51)	10200 nM	4200 nM
CN[C@@H]1CC[C@@H](c2ccc(Cl)cc2Cl)c2ccccc21	6100 nM	–
COCCCC/C(=N\OCCN)c1ccc(C(F)(F)F)cc1 [FLUVOXAMINE]	45000 nM	1900 nM
CN[C@@H]1CC[C@@H](c2ccc(C(F)(F)F)cc2)c2ccccc21	4400 nM	690 nM
CN(C)C/C=C(/c1ccc(Br)cc1)c1cccnc1 [ZIMELDINE]	43000 nM	–
CN[C@@H]1CC[C@@H](c2ccccc2OC)c2ccccc21	5700 nM	480 nM
CN[C@H]1CC[C@@H](c2ccccc2OC)c2ccccc21	11200 nM	2300 nM
CN(C)[C@@H]1CC[C@@H](c2ccc(Cl)cc2)c2ccccc21	380 nM	130 nM
CN[C@H]1CC[C@@H](c2cccc(C(F)(F)F)c2)c2ccccc21 (stereo in doubt; 56)	9700 nM	2700 nM
CN[C@H]1CC[C@@H](c2ccc(Cl)cc2Cl)c2ccccc21	1700 nM	–

SMILES	IC50 [1]	IC50 [2]
CN[C@H]1CC[C@@H](c2ccc(Cl)c(C(F)(F)F)c2)c2ccccc21	1500 nM	–
CN[C@H]1CC[C@@H](c2cccc(C(F)(F)F)c2)c2ccccc21 (stereo in doubt; 57)	2500 nM	7800 nM
CN[C@H]1CC[C@@H](c2ccc(C(F)(F)F)cc2)c2ccccc21 (stereo in doubt; 54)	6400 nM	9400 nM
CN[C@H]1CC[C@@H](c2ccc(OC)cc2)c2ccccc21	4200 nM	3000 nM
CN(C)[C@@H]1CC[C@@H](c2ccc(C(F)(F)F)cc2)c2ccccc21	9800 nM	4700 nM
CN[C@@H]1CC[C@@H](c2ccccc2)c2ccccc21 (stereo in doubt; 44) [TAMETRALINE]	150 nM	18 nM
CCCCOc1ccc([C@@H]2CC[C@@H](NC)c3ccccc32)cc1	–	1150 nM
CN[C@@H]1CC[C@@H](c2ccccc2)c2ccccc21 (stereo in doubt; 45) [TAMETRALINE]	1400 nM	370 nM
CN(C)[C@H]1CC[C@@H](c2ccc(C(F)(F)F)cc2)c2ccccc21	12200 nM	14200 nM
CN(C)[C@H]1CC[C@@H](c2ccccc2)c2ccccc21	10000 nM	310 nM
CN[C@H]1CC[C@@H](c2ccccc2)c2ccccc21 (stereo in doubt; 50)	5500 nM	1800 nM
CN[C@H]1CC[C@@H](c2cccc(C(F)(F)F)c2)c2ccccc21	2540 nM	2550 nM
N[C@H]1CC[C@@H](c2cccc(C(F)(F)F)c2)c2ccccc21	4700 nM	3500 nM
CN(C)[C@H]1CC[C@@H](c2ccc(Cl)c(Cl)c2)c2ccccc21	2000 nM	–
CN[C@H]1CC[C@@H](c2cccc(OC)c2)c2ccccc21	5000 nM	1400 nM
CN(C)[C@H]1CC[C@@H](c2ccc(Cl)cc2)c2ccccc21	5600 nM	1160 nM
CN(C)[C@@H]1CC[C@@H](c2cccc(C(F)(F)F)c2)c2ccccc21	6100 nM	1400 nM
N[C@H]1CC[C@@H](c2ccc(C(F)(F)F)cc2)c2ccccc21	10000 nM	7500 nM
CCCCOc1ccc([C@@H]2CC[C@H](NC)c3ccccc32)cc1	–	940 nM
CN[C@@H]1CC[C@@H](c2ccc(Br)cc2)c2ccccc21	80 nM	30 nM
CN[C@@H]1CC[C@@H](c2ccc(F)c(OC)c2)c2ccccc21	1200 nM	340 nM
CN(C)[C@@H]1CC[C@@H](c2ccccc2)c2ccccc21	840 nM	140 nM
CN[C@H]1CC[C@@H](c2ccc(Oc3ccccc3)cc2)c2ccccc21	6800 nM	3900 nM
CN[C@H]1CC[C@@H](c2ccc(C(F)(F)F)cc2)c2ccccc21 (stereo in doubt; 55)	5600 nM	12000 nM
CN(C)[C@@H]1CC[C@@H](c2ccc(Cl)c(Cl)c2)c2ccccc21	170 nM	–
CN1Cc2c(N)cccc2C(c2ccccc2)C1 (configuration not stated) [NOMIFENSINE]	–	20 nM
